Data: US20100222309A1, “SKIN PROPERTY-IMPROVING THERAPEUTIC AGENT COMPRISING A MORPHINAN DERIVATIVE OR ANY OF ITS PHARMACOLOGICALLY PERMISSIBLE ACID ADDITION SALTS AS AN ACTIVE INGREDIENT” (TORAY INDUSTRIES, INC., priority 2007, published 2010)

System: itch patients treated with hemodialysis
Assay: Oral administration of compound 1 soft capsules to itch patients treated with hemodialysis; skin properties and itching observed
[1] = one of the patients, after end of administration

CN(C(=O)/C=C/c1ccoc1)[C@@H]1CC[C@@]2(O)[C@H]3Cc4ccc(O)c5c4[C@@]2(CCN3CC2CC2)[C@H]1O5.Cl [compound 1]
itching [1]: began to feel itching again | skin moisture [1]: began to have dry skin | itching (patient, two capsules (5.0 μg) oral, after start of administration): began to feel less itching
